Laboratory results as given in patent US10799496B2, “Naphthylenyl compounds for long-acting injectable compositions and related methods” (priority 2018, dated 2020).

Experiments:
[1] = Whole blood stability assay; type: in vitro ADME; conditions: prodrug 50 nM, fresh pooled human whole blood, 37 degrees C.; read-out: t1/2 at 37 degrees C. in human whole blood
Protocol: Naltrexone prodrug stability was assessed using freshly collected whole blood (within 24-hr collection) from pooled human (n=3) donors. The incubation mixtures were prepared by spiking the prodrugs into pre-warmed (37 degrees C.) fresh whole blood to a final concentration of 50 nM. After gentle mixing, aliquots of incubation mixtures were immediately transferred into four different 96-deep well plates. One plate was used for each time point. The plates were incubated at 37 degrees C. at a shaking speed of 100 rpm. At time points 15, 30, 60 and 120 minutes, the reaction was quenched by addition of a mixture of water and acetonitrile containing the internal standard (naltrexone-D3). Time point 0 minutes was prepared separately by spiking the prodrugs into a quenched whole blood to obtain a final concentration of 50 nM. All samples were vortexed at a low speed for 15 min and centrifuged at 3900 rpm for 15 min. Supernatants were transferred into 96-well plates for LC-MS/MS analysis to monitor the depletion of the prodrugs and the formation of naltrexone.
The amount of remaining prodrug and released naltrexone for each sample was quantitated against the calibration curves prepared with the whole blood. The human whole blood was purchased from BioreclamationIVT (Westbury, N.Y., USA). Naltrexone-D3 was purchased from CERILLIANT® (Round Rock, Tex., USA). […] Where multiple runs have been completed, average values are reported.

[2] = Pharmacokinetic evaluation of the release of naltrexone from Compound 2 in rats following a single intramuscular injection; type: in vivo, Sprague-Dawley rats; conditions: for Compound 2i conc.: rat plasma
Protocol: Five male Sprague-Dawley rats were allowed to acclimate to the test facility for at least 2 days prior to study start. For dose administration of Compound 2, the rats were lightly anesthetized with isofluorane, the hind leg shaved and dosed intramuscularly with the formulation using a 21G needle. […] Serial whole blood samples were collected via sublingual route (˜150 μL) at 1, 8, and 24 hours post dose, and at 2, 4, 7, 10, 14, 17, 21, 24, 28, 35, 42, 49, 56, 63, 71, 78, 85, and 91 days post dose.
Blood samples were placed into K2EDTA blood collection tubes. After collection, blood samples were maintained chilled (on wet ice) and centrifuged (11,500 rpm for 2 minutes at 5 degrees C.) within 30 minutes to obtain plasma. Plasma was transferred into a single vial, 1.5 mL screw cap micro-centrifuge tube with inserts and stored at −80 degrees C. until analysis.
The formulation dosed was a crystalline suspension of Compound 2 (46 milligrams of Compound 2 dosed per animal), wherein the crystalline test article was characterized with a particle size distribution of Dv10=12.9 μm, Dv50=31.5 μm, and Dv90=63.1 μm (as measured via laser diffraction). The formulation was prepared the day before dosing. Details of the formulation dosed are described in Table D below.
Results of the above intramuscular rat study of Compound 2 are shown in Tables E and F. In particular, Table E reports the average blood plasma levels of naltrexone in rat (n=5) over 91 days following intramuscular administration.

## O=C(Cc1ccc2c(F)c(CC(=O)Oc3ccc4c5c3O[C@H]3C(=O)CC[C@@]6(O)[C@@H](C4)N(CC4CC4)CC[C@]536)ccc2c1F)Oc1ccc2c3c1O[C@H]1C(=O)CC[C@@]4(O)[C@@H](C2)N(CC2CC2)CC[C@]314 [Compound 5, bis((4R,4aS,7aR,12bS)-3-(cyclopropylmethyl)-4a-hydroxy-7-oxo-2,3,4,4a,5,6,7,7a-octahydro-1H-4,12-methanobenzofuro[3,2-e]isoquinolin-9-yl) 2,2′-(1,5-difluoronaphthalene-2,6-diyl)diacetate]
[1]
  half-life at 50 nM: 20.4 min

## O=C(Cc1ccc2ccc(CC(=O)Oc3ccc4c5c3O[C@H]3C(=O)CC[C@@]6(O)[C@@H](C4)N(CC4CC4)CC[C@]536)cc2c1)Oc1ccc2c3c1O[C@H]1C(=O)CC[C@@]4(O)[C@@H](C2)N(CC2CC2)CC[C@]314 [Compound 10, bis((4R,4aS,7aR,12bS)-3-(cyclopropylmethyl)-4a-hydroxy-7-oxo-2,3,4,4a,5,6,7,7a-octahydro-1H-4,12-methanobenzofuro[3,2-e]isoquinolin-9-yl) 2,2′-(naphthalene-2,7-diyl)diacetate]
[1]
  half-life at 50 nM: 14.7 min

## O=C(Oc1ccc2c3c1O[C@H]1C(=O)CC[C@@]4(O)[C@@H](C2)N(CC2CC2)CC[C@]314)c1ccc(C(=O)Oc2ccc3c4c2O[C@H]2C(=O)CC[C@@]5(O)[C@@H](C3)N(CC3CC3)CC[C@]425)cc1 [Reference Compound A, NTX-3-terephthaloyl-NTX, reference compound]
[1]
  half-life at 50 nM: 54.7 min

## CC(=O)Oc1c(CC(=O)Oc2ccc3c4c2O[C@H]2C(=O)CC[C@@]5(O)[C@@H](C3)N(CC3CC3)CC[C@]425)ccc2c(OC(C)=O)c(CC(=O)Oc3ccc4c5c3O[C@H]3C(=O)CC[C@@]6(O)[C@@H](C4)N(CC4CC4)CC[C@]536)ccc12 [Compound 3, bis((4R,4aS,7aR,12bS)-3-(cyclopropylmethyl)-4a-hydroxy-7-oxo-2,3,4,4a,5,6,7,7a-octahydro-1H-4,12-methanobenzofuro[3,2-e]isoquinolin-9-yl) 2,2′-(1,5-diacetoxynaphthalene-2,6-diyl)diacetate]
[1]
  half-life at 50 nM: 14.8 min

## O=C(O)Cc1ccc2cc(CC(=O)Oc3ccc4c5c3O[C@H]3C(=O)CC[C@@]6(O)[C@@H](C4)N(CC4CC4)CC[C@]536)ccc2c1 [Compound 2i, 2-(6-(2-(((4R,4aS,7aR,12bS)-3-(cyclopropylmethyl)-4a-hydroxy-7-oxo-2,3,4,4a,5,6,7,7a-octahydro-1H-4,12-methanobenzofuro[3,2-e]isoquinolin-9-yl)oxy)-2-oxoethyl)naphthalen-2-yl)acetic acid]
[2]; single i.m. dose of Compound 2, day 0.042 (1 hr), Rat 1
  Compound 2i conc.: <0.2 ng/mL
[2]; single i.m. dose of Compound 2, day 0.042 (1 hr), Rat 2
  Compound 2i conc.: <0.2 ng/mL
[2]; single i.m. dose of Compound 2, day 0.042 (1 hr), Rat 3
  Compound 2i conc.: <0.2 ng/mL
[2]; single i.m. dose of Compound 2, day 0.042 (1 hr), Rat 4
  Compound 2i conc.: <0.2 ng/mL
[2]; single i.m. dose of Compound 2, day 0.042 (1 hr), Rat 5
  Compound 2i conc.: <0.2 ng/mL
[2]; single i.m. dose of Compound 2, day 0.33 (8 hr), Rat 1
  Compound 2i conc.: <0.2 ng/mL
[2]; single i.m. dose of Compound 2, day 0.33 (8 hr), Rat 2
  Compound 2i conc.: <0.2 ng/mL
[2]; single i.m. dose of Compound 2, day 0.33 (8 hr), Rat 3
  Compound 2i conc.: <0.2 ng/mL
[2]; single i.m. dose of Compound 2, day 0.33 (8 hr), Rat 4
  Compound 2i conc.: <0.2 ng/mL
[2]; single i.m. dose of Compound 2, day 0.33 (8 hr), Rat 5
  Compound 2i conc.: <0.2 ng/mL
[2]; single i.m. dose of Compound 2, day 1, Rat 1
  Compound 2i conc.: <0.2 ng/mL
[2]; single i.m. dose of Compound 2, day 1, Rat 2
  Compound 2i conc.: <0.2 ng/mL
[2]; single i.m. dose of Compound 2, day 1, Rat 3
  Compound 2i conc.: <0.2 ng/mL
[2]; single i.m. dose of Compound 2, day 1, Rat 4
  Compound 2i conc.: <0.2 ng/mL
[2]; single i.m. dose of Compound 2, day 1, Rat 5
  Compound 2i conc.: <0.2 ng/mL
[2]; single i.m. dose of Compound 2, day 2, Rat 1
  Compound 2i conc.: <0.2 ng/mL
[2]; single i.m. dose of Compound 2, day 2, Rat 2
  Compound 2i conc.: <0.2 ng/mL
[2]; single i.m. dose of Compound 2, day 2, Rat 3
  Compound 2i conc.: <0.2 ng/mL
[2]; single i.m. dose of Compound 2, day 2, Rat 4
  Compound 2i conc.: <0.2 ng/mL
[2]; single i.m. dose of Compound 2, day 2, Rat 5
  Compound 2i conc.: <0.2 ng/mL
[2]; single i.m. dose of Compound 2, day 4, Rat 1
  Compound 2i conc.: <0.2 ng/mL
[2]; single i.m. dose of Compound 2, day 4, Rat 2
  Compound 2i conc.: <0.2 ng/mL
[2]; single i.m. dose of Compound 2, day 4, Rat 3
  Compound 2i conc.: <0.2 ng/mL
[2]; single i.m. dose of Compound 2, day 4, Rat 4
  Compound 2i conc.: <0.2 ng/mL
[2]; single i.m. dose of Compound 2, day 4, Rat 5
  Compound 2i conc.: <0.2 ng/mL
[2]; single i.m. dose of Compound 2, day 7, Rat 1
  Compound 2i conc.: <0.2 ng/mL
[2]; single i.m. dose of Compound 2, day 7, Rat 2
  Compound 2i conc.: <0.2 ng/mL
[2]; single i.m. dose of Compound 2, day 7, Rat 3
  Compound 2i conc.: <0.2 ng/mL
[2]; single i.m. dose of Compound 2, day 7, Rat 4
  Compound 2i conc.: <0.2 ng/mL
[2]; single i.m. dose of Compound 2, day 7, Rat 5
  Compound 2i conc.: <0.2 ng/mL
[2]; single i.m. dose of Compound 2, day 10, Rat 5
  Compound 2i conc.: <0.2 ng/mL
[2]; single i.m. dose of Compound 2, day 49, Rat 1
  Compound 2i conc.: <0.1 ng/mL
[2]; single i.m. dose of Compound 2, day 49, Rat 2
  Compound 2i conc.: <0.1 ng/mL
[2]; single i.m. dose of Compound 2, day 49, Rat 3
  Compound 2i conc.: <0.1 ng/mL
[2]; single i.m. dose of Compound 2, day 49, Rat 4
  Compound 2i conc.: <0.1 ng/mL
[2]; single i.m. dose of Compound 2, day 56, Rat 1
  Compound 2i conc.: <0.1 ng/mL
[2]; single i.m. dose of Compound 2, day 56, Rat 2
  Compound 2i conc.: <0.1 ng/mL
[2]; single i.m. dose of Compound 2, day 56, Rat 3
  Compound 2i conc.: <0.1 ng/mL
[2]; single i.m. dose of Compound 2, day 56, Rat 4
  Compound 2i conc.: <0.1 ng/mL
[2]; single i.m. dose of Compound 2, day 56, Rat 5
  Compound 2i conc.: <0.1 ng/mL
[2]; single i.m. dose of Compound 2, day 63, Rat 1
  Compound 2i conc.: <0.1 ng/mL
[2]; single i.m. dose of Compound 2, day 63, Rat 2
  Compound 2i conc.: <0.1 ng/mL
[2]; single i.m. dose of Compound 2, day 63, Rat 3
  Compound 2i conc.: <0.1 ng/mL
[2]; single i.m. dose of Compound 2, day 63, Rat 4
  Compound 2i conc.: <0.1 ng/mL
[2]; single i.m. dose of Compound 2, day 63, Rat 5
  Compound 2i conc.: <0.1 ng/mL
[2]; single i.m. dose of Compound 2, day 71, Rat 1
  Compound 2i conc.: <0.1 ng/mL
[2]; single i.m. dose of Compound 2, day 71, Rat 2
  Compound 2i conc.: <0.1 ng/mL
[2]; single i.m. dose of Compound 2, day 71, Rat 3
  Compound 2i conc.: <0.1 ng/mL
[2]; single i.m. dose of Compound 2, day 71, Rat 4
  Compound 2i conc.: <0.1 ng/mL
[2]; single i.m. dose of Compound 2, day 71, Rat 5
  Compound 2i conc.: <0.1 ng/mL
[2]; single i.m. dose of Compound 2, day 78, Rat 1
  Compound 2i conc.: <0.1 ng/mL
[2]; single i.m. dose of Compound 2, day 78, Rat 2
  Compound 2i conc.: <0.1 ng/mL
[2]; single i.m. dose of Compound 2, day 78, Rat 3
  Compound 2i conc.: <0.1 ng/mL
[2]; single i.m. dose of Compound 2, day 78, Rat 4
  Compound 2i conc.: <0.1 ng/mL
[2]; single i.m. dose of Compound 2, day 78, Rat 5
  Compound 2i conc.: <0.1 ng/mL
[2]; single i.m. dose of Compound 2, day 85, Rat 1
  Compound 2i conc.: <0.1 ng/mL
[2]; single i.m. dose of Compound 2, day 85, Rat 2
  Compound 2i conc.: <0.1 ng/mL
[2]; single i.m. dose of Compound 2, day 85, Rat 3
  Compound 2i conc.: <0.1 ng/mL
[2]; single i.m. dose of Compound 2, day 85, Rat 4
  Compound 2i conc.: <0.1 ng/mL
[2]; single i.m. dose of Compound 2, day 85, Rat 5
  Compound 2i conc.: <0.1 ng/mL
[2]; single i.m. dose of Compound 2, day 91, Rat 1
  Compound 2i conc.: <0.1 ng/mL
[2]; single i.m. dose of Compound 2, day 91, Rat 2
  Compound 2i conc.: <0.1 ng/mL
[2]; single i.m. dose of Compound 2, day 91, Rat 3
  Compound 2i conc.: <0.1 ng/mL
[2]; single i.m. dose of Compound 2, day 91, Rat 4
  Compound 2i conc.: <0.1 ng/mL
[2]; single i.m. dose of Compound 2, day 91, Rat 5
  Compound 2i conc.: <0.1 ng/mL
[2]; rat, single i.m. dose of Compound 2, over 91 days
  plasma concentrations of parent Compound 2 and the resultant intermediate: generally low to not measurable
